What was measured:
[1] = biological target: T1, PDK1 (Homo sapiens, UniProt O15530); experiment: Test for the inhibition of PDK1 (flashplate, 33P-ATP); details: His6-PDK1 (1-50) 3.4 nM, 4 μM ATP, 30° C., 60 min; read-out: IC50 [PDK1] biochemical
T1 construct: His6 (N)
T1 sequence (O15530 51-556 limits assumed): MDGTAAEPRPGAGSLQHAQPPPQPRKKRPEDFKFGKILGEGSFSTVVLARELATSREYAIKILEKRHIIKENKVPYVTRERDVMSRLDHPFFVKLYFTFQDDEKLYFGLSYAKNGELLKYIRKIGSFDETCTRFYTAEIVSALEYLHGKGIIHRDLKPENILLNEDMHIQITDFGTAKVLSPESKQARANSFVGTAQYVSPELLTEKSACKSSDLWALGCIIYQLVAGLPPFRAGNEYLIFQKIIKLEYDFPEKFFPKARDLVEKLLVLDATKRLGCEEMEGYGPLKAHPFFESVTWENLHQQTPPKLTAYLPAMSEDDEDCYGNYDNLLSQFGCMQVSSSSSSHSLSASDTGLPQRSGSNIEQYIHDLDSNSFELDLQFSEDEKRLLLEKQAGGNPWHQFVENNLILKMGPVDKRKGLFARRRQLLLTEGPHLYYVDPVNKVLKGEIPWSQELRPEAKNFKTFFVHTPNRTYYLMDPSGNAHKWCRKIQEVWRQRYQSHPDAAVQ
Summary of the method: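 His6-PDK1 (1-50) (3.4 nM) with biotinylated peptide substrate (400 nM) and 4 μM ATP plus ^33P-ATP, 60 min at 30° C; incorporated radioactivity counted. Blank from 100 nM staurosporin subtracted, activity expressed as % of compound-free control, IC50 derived from dilution series.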

[2] = biological target: T2, PDK1 (Homo sapiens, UniProt O15530); experiment: Cellular testing of PDK1 kinase inhibitors in PC3 cells (Luminex, phospho-T308-PKB); format: cell-based; details: 30 min, serum-free
T2 construct: endogenous in cells; host or cells: PC3 cells
T2 sequence (O15530 1-556): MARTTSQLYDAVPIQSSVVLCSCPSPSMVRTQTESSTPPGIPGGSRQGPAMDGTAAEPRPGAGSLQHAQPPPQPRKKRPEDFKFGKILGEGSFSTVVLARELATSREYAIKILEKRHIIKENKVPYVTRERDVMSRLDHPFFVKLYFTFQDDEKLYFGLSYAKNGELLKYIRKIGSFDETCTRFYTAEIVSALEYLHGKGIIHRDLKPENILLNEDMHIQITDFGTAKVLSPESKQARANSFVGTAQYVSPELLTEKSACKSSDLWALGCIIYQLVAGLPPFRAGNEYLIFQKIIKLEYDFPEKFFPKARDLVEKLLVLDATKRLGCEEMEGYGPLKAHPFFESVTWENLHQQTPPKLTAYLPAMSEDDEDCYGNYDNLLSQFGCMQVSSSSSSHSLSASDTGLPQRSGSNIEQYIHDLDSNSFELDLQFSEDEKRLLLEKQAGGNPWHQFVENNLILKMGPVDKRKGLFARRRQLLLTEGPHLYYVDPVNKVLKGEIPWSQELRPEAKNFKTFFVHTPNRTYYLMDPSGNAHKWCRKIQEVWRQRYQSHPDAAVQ
Summary of the method: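 PC3 cells were treated 30 min serum-free with 7-concentration compound series, lysed, and phospho-T308-PKB measured by Luminex bead assay (anti-total PKB capture, phospho-T308 detection). Blank was 10 μM staurosporine; maximum was 0.3% DMSO; IC50 derived from percent of control.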

Row | IC50 [1] [nM] | IC50 [2] [nM] | Compound
1 | 0.5 to 1000 | 1000 to 10000 | Cn1cc(-c2cnc3[nH]cc(-c4n[nH]c(C5(c6cccnc6)CC5)n4)c3c2)cn1 [A125, 5-(1-methyl-1H-pyrazol-4-yl)-3-[5-(1-pyridin-3-ylcyclopropyl)-1H-1,2,4-triazol-3-yl]-1H-pyrrolo[2,3-b]pyridine]
2 | 0.5 to 1000 | 1000 to 10000 | Cn1cc(-c2cnc3[nH]cc(-c4n[nH]c(C5(c6ccc(=O)[nH]c6)CC5)n4)c3c2)cn1 [A126, 5-(1-{5-[5-(1-methyl-1H-pyrazol-4-yl)-1H-pyrrolo[2,3-b]pyridin-3-yl]-2H-1,2,4-triazol-3-yl}cyclopropyl)-1H-pyridin-2-one]
3 | 1000 to 10000 | 1000 to 10000 | COc1ccc(C2(c3nc(-c4c[nH]c5ncc(-c6cnn(C)c6)cc45)n[nH]3)CC2)cn1 [A127, 3-{5-[1-(6-methoxypyridin-3-yl)cyclopropyl]-1H-1,2,4-triazol-3-yl}-5-(1-methyl-1H-pyrazol-4-yl)-1H-pyrrolo[2,3-b]pyridine]
4 | 1000 to 10000 | 1000 to 10000 | COC(=O)c1ccc(C(O)c2nnc(-c3c[nH]c4ncc(-c5cnn(C)c5)cc34)o2)c(Cl)c1 (stereo not shown) [A128, methyl 3-chloro-4-(hydroxy-{5-[5-(1-methyl-1H-pyrazol-4-yl)-1H-pyrrolo[2,3-b]-pyridin-3-yl]-1,3,4-oxadiazol-2-yl}methyl)benzoate]
5 | 0.5 to 1000 | 1000 to 10000 | Cn1cc(-c2cnc3[nH]cc(-c4nnc(C(C)(O)c5ccccc5Cl)o4)c3c2)cn1 (stereo not shown) [A132, I-(2-chlorophenyl)-1-{5-[5-(1-methyl-1H-pyrazol-4-yl)-1H-pyrrolo[2,3-b]pyridin-3-yl]-1,3,4-oxadiazol-2-yl}ethanol]

Reference: patent publication US20130245355A1, “3-HETARYL-SUBSTITUTED PYRROLO[2,3 B]PYRIDINE DERIVATIVES AS PDK1 INHIBITORS” (MERCK PATENT GMBH, priority 2010, published 2013)
